Laboratory results from US7666906B2, “β-Benzyloxyaspartate derivatives with amino group on benzene ring” (Suntory Holdings Limited, priority 2001, dated 2010).

Assays:
[1] = biological target: T1, human EAAT3 (Homo sapiens, UniProt P43005); test: inhibition of [14C]glutamate uptake by human EAAT3 expressed on MDCK or COS-1 cells; format: cell-based; conditions: 1 μM L-[14C]glutamate, 12 minutes
T1 construct: expressed in transfected cells
T1 sequence (P43005 1-524): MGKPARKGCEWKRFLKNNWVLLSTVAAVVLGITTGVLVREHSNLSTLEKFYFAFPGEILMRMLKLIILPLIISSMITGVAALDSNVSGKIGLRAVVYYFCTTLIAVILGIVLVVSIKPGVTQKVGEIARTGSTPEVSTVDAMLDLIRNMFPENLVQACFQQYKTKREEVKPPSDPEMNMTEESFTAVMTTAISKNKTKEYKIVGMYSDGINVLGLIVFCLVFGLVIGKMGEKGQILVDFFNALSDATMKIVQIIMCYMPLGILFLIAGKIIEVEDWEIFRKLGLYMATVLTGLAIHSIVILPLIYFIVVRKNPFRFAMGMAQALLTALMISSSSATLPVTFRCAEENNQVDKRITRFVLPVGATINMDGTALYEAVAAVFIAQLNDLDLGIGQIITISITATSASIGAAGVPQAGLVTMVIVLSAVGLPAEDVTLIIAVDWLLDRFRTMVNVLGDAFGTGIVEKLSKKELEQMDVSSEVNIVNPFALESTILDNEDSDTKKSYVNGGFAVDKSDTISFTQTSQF
Source text: (§1) Well-known methods can be used to determine inhibitory activity of the compounds of the invention on glutamate transporters. For example, the compounds of the invention have been confirmed to inhibit uptake of ^14C-labeled glutamate into cells by human EAAT2 and EAAT3 stably expressed on MDCK (Madin-Darby Canine Kidney) cells or transiently expressed on COS-1 cells.
(§2) A known method (Shimamoto, K. et al., Mol. Pharmacol. 53, 195-201, 1998; Bioorg. Med. Chem. Lett. 10, 2407-2410, 2000) was used to measure the inhibitory effect on uptake of [^14C]glutamate by human EAAT2 and EAAT3 stably expressed on MDCK (Madin-Darby Canine Kidney) cells or transiently expressed on COS-1 cells. The glutamate uptake activity was measured by adding 1 μM of L-[^14C]glutamate and a prescribed concentration of sample, incubating for 12 minutes and then lysating the cells, and using a liquid scintillator to determine the radioactivity uptake. The uptake was expressed as a percentage, with 100% being the uptake with no compound (buffer alone) and 0% being the uptake with a sodium-free solution.

[2] = biological target: T2, human EAAT2 (Homo sapiens, UniProt P43004); test: inhibition of [14C]glutamate uptake by human EAAT2 expressed on MDCK or COS-1 cells; format: cell-based; conditions: 1 μM L-[14C]glutamate, 12 minutes
T2 construct: expressed in transfected cells
Source text: as §1, §2

[3] = COS-1 cells (transiently expressed), marked *

T2 sequence (P43004 whole entry): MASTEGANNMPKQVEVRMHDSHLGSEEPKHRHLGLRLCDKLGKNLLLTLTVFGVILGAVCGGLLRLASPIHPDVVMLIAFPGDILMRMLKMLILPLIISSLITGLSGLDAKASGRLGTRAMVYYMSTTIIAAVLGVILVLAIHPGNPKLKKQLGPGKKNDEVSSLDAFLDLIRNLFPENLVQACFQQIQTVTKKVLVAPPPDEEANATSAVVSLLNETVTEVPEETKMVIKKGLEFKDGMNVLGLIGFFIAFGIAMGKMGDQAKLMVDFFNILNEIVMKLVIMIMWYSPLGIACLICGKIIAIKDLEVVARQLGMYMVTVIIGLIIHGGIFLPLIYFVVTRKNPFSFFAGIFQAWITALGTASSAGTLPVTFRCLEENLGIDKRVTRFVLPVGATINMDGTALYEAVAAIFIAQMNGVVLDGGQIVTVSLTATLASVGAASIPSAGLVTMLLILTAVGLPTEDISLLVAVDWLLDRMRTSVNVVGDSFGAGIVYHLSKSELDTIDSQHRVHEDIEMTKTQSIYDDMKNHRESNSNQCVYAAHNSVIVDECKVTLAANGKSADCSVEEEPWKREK

## N[C@H](C(=O)O)[C@H](OCc1cccc(NC(=O)c2ccc([N+](=O)[O-])cc2)c1)C(=O)O [NO2-BzA-TBOA, (2S,3S)-3-[3-[N-(4-nitrobenzoyl)amino]benzyloxy]aspartic acid]
[1]; stably expressed on MDCK cells
  IC50: 278 ± 32 nM
[2]; stably expressed on MDCK cells
  IC50: 14 ± 1.4 nM

## N[C@H](C(=O)O)[C@H](OCc1cccc(NC(=O)c2ccc(C(F)(F)F)cc2)c1)C(=O)O [CF3-BzA-TBOA, (2S,3S)-3-[3-[N-(4-trifluoromethylbenzoyl)amino]benzyloxy]aspartic acid]
[1]; stably expressed on MDCK cells
  IC50: 28 ± 1.8 nM
[2]; stably expressed on MDCK cells
  IC50: 1.9 ± 0.1 nM

## N[C@H](C(=O)O)[C@H](OCc1cccc(NC(=O)c2ccccc2)c1)C(=O)O [BzA-TBOA, (2S,3S)-3-[3-(N-benzoylamino)benzyloxy]aspartic acid]
[1]; stably expressed on MDCK cells
  IC50: 726 ± 98 nM
[2]; stably expressed on MDCK cells
  IC50: 55 ± 5 nM

## CCC(=O)Nc1cccc(CO[C@H](C(=O)O)[C@H](N)C(=O)O)c1 [Pr-A-TBOA, (2S,3S)-3-[3-(N-propionylamino)benzyloxy]aspartic acid]
[1]; stably expressed on MDCK cells
  IC50: 7900 ± 460 nM
[2]; stably expressed on MDCK cells
  IC50: 2000 ± 210 nM

## N[C@H](C(=O)O)[C@H](OCc1cccc(NC(=O)c2ccc(OCCCCCNC(=O)CCCC[C@@H]3SC[C@@H]4NC(=O)N[C@@H]43)cc2)c1)C(=O)O [BioA-PenO-BzA-TBOA, (2S,3S)-3-[3-(N-(4-(5-biotynylaminopentyloxy)benzoyl)amino)benzyloxy]aspartic acid]
[1]; stably expressed on MDCK cells
  IC50: 1100 ± 60 nM
[2]; stably expressed on MDCK cells
  IC50: 2200 ± 520 nM

## N[C@H](C(=O)O)[C@H](OCc1cccc(NC(=O)C2CCCCC2)c1)C(=O)O [CHexcA-TBOA, (2S,3S)-3-[3-(N-cyclohexylcarbonylamino)benzyloxy]aspartic acid]
[1]; stably expressed on MDCK cells
  IC50: 288 ± 8 nM
[2]; stably expressed on MDCK cells
  IC50: 244 ± 12 nM

## CCCCCCOc1ccc(C(=O)Nc2cccc(CO[C@H](C(=O)O)[C@H](N)C(=O)O)c2)cc1 [OHex-BzA-TBOA, (2S,3S)-3-[3-[N-(4-n-hexyloxybenzoyl)amino]benzyloxy]aspartic acid]
[1]; stably expressed on MDCK cells
  IC50: 18 ± 1.6 nM
[2]; stably expressed on MDCK cells
  IC50: 1.2 ± 0.04 nM

## N[C@H](C(=O)O)[C@H](OCc1ccccc1)C(=O)O [TBOA, L-threo-β-benzyloxyaspartate, reference compound]
[1]; stably expressed on MDCK cells
  IC50: 1300 ± 110 nM
[2]; stably expressed on MDCK cells
  IC50: 1400 ± 120 nM

## N[C@H](C(=O)O)[C@H](OCc1cccc(NC(=O)CCNC(=O)CCCC[C@@H]2SC[C@@H]3NC(=O)N[C@@H]32)c1)C(=O)O [Bio-AA-TBOA, (2S,3S)-3-[3-(3-N-biotinylaminopropionylamino)benzyloxy]aspartic acid]
[1]; stably expressed on MDCK cells
  IC50: 10000 ± 930 nM
[2]; stably expressed on MDCK cells
  IC50: 6300 ± 390 nM

## Nc1cccc(CO[C@H](C(=O)O)[C@H](N)C(=O)O)c1 [A-TBOA, (2S,3S)-3-(3-aminobenzyloxy)aspartic acid]
[1]; stably expressed on MDCK cells
  IC50: 7900 ± 760 nM
[2]; stably expressed on MDCK cells
  IC50: 2100 ± 100 nM

## NCCC(=O)Nc1cccc(CO[C@H](C(=O)O)[C@H](N)C(=O)O)c1 [AA-TBOA, (2S,3S)-3-[3-(3-aminopropionylamino)benzyloxy]aspartic acid]
[1]; stably expressed on MDCK cells
  IC50: 13000 ± 1100 nM
[2]; stably expressed on MDCK cells
  IC50: 13000 ± 1100 nM

## COc1ccc(C(=O)Nc2cccc(CO[C@H](C(=O)O)[C@H](N)C(=O)O)c2)cc1OC [DiMeO-BzA-TBOA, (2S,3S)-3-[3-[N-(3,4-dimethoxybenzoyl)amino]benzyloxy]aspartic acid]
[1]; stably expressed on MDCK cells
  IC50: 917 ± 30 nM
[2]; stably expressed on MDCK cells
  IC50: 49 ± 3.8 nM

## N[C@H](C(=O)O)[C@H](OCc1cccc(NC(=O)c2ccc(F)cc2)c1)C(=O)O [F-BzA-TBOA, (2S,3S)-3-[3-[N-(4-fluorobenzoyl)amino]benzyloxy]aspartic acid]
[1]; stably expressed on MDCK cells
  IC50: 473 ± 13 nM
[2]; stably expressed on MDCK cells
  IC50: 22 ± 2.7 nM

## CCC(=O)Nc1ccc(CO[C@H](C(=O)O)[C@H](N)C(=O)O)cc1 [p-Pr-A-TBOA, (2S,3S)-3-[4-(N-propionylamino)benzyloxy]aspartic acid]
[1]; [3]
  IC50: 295000 ± 118000 nM
[2]; [3]
  IC50: 111000 ± 25000 nM

## N[C@H](C(=O)O)[C@H](OCc1cccc(NC(=O)c2ccc(-c3ccccc3)cc2)c1)C(=O)O [Ph-BzA-TBOA, (2S,3S)-3-[3-[N-(4-phenylbenzoyl)amino]benzyloxy]aspartic acid]
[1]; stably expressed on MDCK cells
  IC50: 34 ± 19 nM
[2]; stably expressed on MDCK cells
  IC50: 21 ± 2.2 nM

## N[C@H](C(=O)O)[C@H](OCc1cccc(NC(=O)c2ccc(OC(F)(F)F)cc2)c1)C(=O)O [OCF3-BzA-TBOA, (2S,3S)-3-[3-[N-(4-trifluoromethoxybenzoyl)amino]benzyloxy]aspartic acid]
[1]; stably expressed on MDCK cells
  IC50: 128 ± 12 nM
[2]; stably expressed on MDCK cells
  IC50: 7 ± 0.5 nM

## CC(C)(C)C(=O)Nc1cccc(CO[C@H](C(=O)O)[C@H](N)C(=O)O)c1 [Piv-A-TBOA, (2S,3S)-3-[3-(N-pivaroylamino)benzyloxy]aspartic acid]
[1]; stably expressed on MDCK cells
  IC50: 4100 ± 670 nM
[2]; stably expressed on MDCK cells
  IC50: 1000 ± 130 nM

## COc1cccc(C(=O)Nc2cccc(CO[C@H](C(=O)O)[C@H](N)C(=O)O)c2)c1 [m-MeO-BzA-TBOA, (2S,3S)-3-[3-[N-(3-methoxybenzoyl)amino]benzyloxy]aspartic acid]
[1]; stably expressed on MDCK cells
  IC50: 356 ± 12 nM
[2]; stably expressed on MDCK cells
  IC50: 37 ± 2.5 nM

## N[C@H](C(=O)O)[C@H](OCc1cccc(NC(=O)Cc2ccccc2)c1)C(=O)O [PhAcA-TBOA, (2S,3S)-3-[3-(N-phenylacetylamino)benzyloxy]aspartic acid]
[1]; stably expressed on MDCK cells
  IC50: 529 ± 32 nM
[2]; stably expressed on MDCK cells
  IC50: 143 ± 7.9 nM

## CC(C)(C)c1ccc(C(=O)Nc2cccc(CO[C@H](C(=O)O)[C@H](N)C(=O)O)c2)cc1 [TBu-BzA-TBOA, (2S,3S)-3-[3-[N-(4-tert-butylbenzoyl)amino]benzyloxy]aspartic acid]
[1]; stably expressed on MDCK cells
  IC50: 182 ± 11 nM
[2]; stably expressed on MDCK cells
  IC50: 25 ± 0.5 nM

## COc1ccccc1C(=O)Nc1cccc(CO[C@H](C(=O)O)[C@H](N)C(=O)O)c1 [o-MeO-BzA-TBOA, (2S,3S)-3-[3-[N-(2-methoxybenzoyl)amino]benzyloxy]aspartic acid]
[1]; stably expressed on MDCK cells
  IC50: 1000 ± 42 nM
[2]; stably expressed on MDCK cells
  IC50: 145 ± 2.2 nM

## N#Cc1ccc(C(=O)Nc2cccc(CO[C@H](C(=O)O)[C@H](N)C(=O)O)c2)cc1 [CN-BzA-TBOA, (2S,3S)-3-[3-[N-(4-cyanobenzoyl)amino]benzyloxy]aspartic acid]
[1]; stably expressed on MDCK cells
  IC50: 1400 ± 99 nM
[2]; stably expressed on MDCK cells
  IC50: 36 ± 2.9 nM

## N[C@H](C(=O)O)[C@H](OCc1cccc(NC(=O)CCCC[C@@H]2SC[C@@H]3NC(=O)N[C@@H]32)c1)C(=O)O [BioA-TBOA, (2S,3S)-3-[3-(N-biotinylamino)benzyloxy]aspartic acid]
[1]; stably expressed on MDCK cells
  IC50: 25000 ± 2400 nM
[2]; stably expressed on MDCK cells
  IC50: 38000 ± 13000 nM

## NCCCCCOc1ccc(C(=O)Nc2cccc(CO[C@H](C(=O)O)[C@H](N)C(=O)O)c2)cc1 [A-PenO-BzA-TBOA, (2S,3S)-3-[3-(N-(4-(5-aminopentyloxy)benzoyl)amino)benzyloxy]aspartic acid]
[1]; stably expressed on MDCK cells
  IC50: 2200 ± 200 nM
[2]; stably expressed on MDCK cells
  IC50: 7300 ± 1100 nM

## CCC(=O)NCCC(=O)Nc1cccc(COC(C(=O)O)C(N)C(=O)O)c1 [Pr-AA-TBOA, (2S,3S)-3-[3-(3-N-propionylaminopropionylamino)benzyloxy]aspartic acid]
[1]; stably expressed on MDCK cells
  IC50: 7600 ± 450 nM
[2]; stably expressed on MDCK cells
  IC50: 6000 ± 1400 nM

## COc1ccc(C(=O)Nc2cccc(CO[C@H](C(=O)O)[C@H](N)C(=O)O)c2)cc1 [p-MeO-BzA-TBOA, (2S,3S)-3-[3-[N-(4-methoxybenzoyl)amino]benzyloxy]aspartic acid]
[1]; stably expressed on MDCK cells
  IC50: 266 ± 20 nM
[2]; stably expressed on MDCK cells
  IC50: 12 ± 0.5 nM
